In PMC12097015, “Development of MDM2‐Targeting PROTAC for Advancing Bone Regeneration” (Advanced Science, 2025):

How the values were obtained:
rabbit calvaria = test: Rabbit calvarial vertical onlay graft model; format: in vivo, New Zealand white rabbits; conditions: eight weeks, CL144 10 μΜ or rhBMP‐2 3.85 μΜ soaked on BCP carrier
Experimental: Total six male, New Zealand white rabbits, weighing ≈2.8–3.2 kg were used for the rabbit calvaria onlay graft model. Rabbits were kept in separate cages under standard laboratory conditions with free access to food and water and provided standard meals according to the ARRIVE guidelines. The animals were sacrificed eight weeks postoperatively (n = 6), and each rabbit was divided into three different groups. […] General anesthesia was induced by injecting 65 mg kg^−1 ketamine (Ketalar, Yuhan, Korea) and xylazine (Rompun, Bayer, Korea). A full‐thickness flap was raised under local anesthesia with 2% lidocaine and 1:100 000 epinephrine to expose the calvarial bone. Slits around the sagittal suture were prepared using a trephine bur (7 mm in diameter, 1 mm in depth), and then four perforations of the external cortical bone plate were made. […]
‐Radiographic analysis: A single‐blinded examiner conducted all the measurements. […] The volume of the newly formed bone within the cylinders was measured.
The embedding paraffin blocks were then sectioned into 4 µm thick slices and stained with Masson trichrome. […] Within the cylinder, the total augmented area, area and proportion of newly formed bone, and residual graft materials were measured as previously described.^[ [34] ^]

bone marrow = test: Immunohistochemistry of femur bone marrow in the OVX model; format: in vivo; conditions: OVX mice femur
Experimental: ‐Immunohistochemistry: Decalcified femurs were fixed in 4% paraformaldehyde (PFA) at 4 °C for 24 h, rinsed three times with phosphate‐buffered saline (PBS), and decalcified in 12.5 mM EDTA (pH 8.0) for 14 days. The specimens were dehydrated through a graded ethanol series (70%, 80%, 95%, 100%) and embedded in paraffin. Longitudinal sections (3 µm thick) were prepared using a microtome, mounted on glass slides, and dried at 55 °C. For deparaffinization, slides were treated with xylene (four 5‐min treatments) and rehydrated through descending ethanol concentrations (100%, 95%, 80%, 70%) in 2‐min intervals. Immunohistochemistry was performed with a ready‐to‐use IHC/ICC kit (BioVision, Inc.). Sections were incubated overnight at room temperature with primary antibodies (1:100) against MDM2, p53, Bcl‐2, and cleaved caspase‐3, followed by a 20‐min incubation with HRP‐conjugated anti‐mouse IgG polymer. After PBS washes, antigen‐antibody complexes were visualized using 3,3′‐diaminobenzidine (DAB) for 10 min, and sections were counterstained with hematoxylin for 1 minute. The stained sections were imaged using a Slide Scanner (Zeiss, Germany).

MDM2 [1] = target: T1, MDM2 (Homo sapiens, UniProt Q00987); test: Immunoprecipitation of MDM2 ubiquitination in HeLa cells overexpressing MDM2 and HA-tagged ubiquitin; format: cell-based; parameters: host or cells: HeLa; conditions: 10 µM, within 60 min
T1 sequence (Q00987 whole entry): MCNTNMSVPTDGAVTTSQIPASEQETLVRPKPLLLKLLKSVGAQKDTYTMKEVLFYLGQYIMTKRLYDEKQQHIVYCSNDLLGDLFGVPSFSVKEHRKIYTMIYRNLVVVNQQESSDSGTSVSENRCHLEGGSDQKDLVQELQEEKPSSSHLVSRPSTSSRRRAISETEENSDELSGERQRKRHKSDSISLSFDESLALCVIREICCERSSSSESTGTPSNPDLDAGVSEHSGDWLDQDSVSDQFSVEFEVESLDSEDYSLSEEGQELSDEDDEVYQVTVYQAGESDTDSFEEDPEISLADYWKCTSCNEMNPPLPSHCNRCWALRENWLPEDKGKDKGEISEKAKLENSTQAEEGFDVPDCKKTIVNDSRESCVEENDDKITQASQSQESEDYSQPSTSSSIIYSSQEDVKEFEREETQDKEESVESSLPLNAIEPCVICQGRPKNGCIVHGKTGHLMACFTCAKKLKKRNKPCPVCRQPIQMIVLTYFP
Experimental: HeLa cells were cultured in DMEM (Welgene, LM001‐05) supplemented with 10% FBS (Welgene, S001‐07). For transient transfection, the cells were seeded at ≈70% confluence. The following day, transfection was performed using Lipofectamine 3000 (Invitrogen, L3000015) for 24 h according to the manufacturer's protocol. The cells were transfected with 100 ng of EGFP‐MDM2 per well in the 96‐well plate and were transfected with 2 µg of MDM2 WT and 2 µg of HA‐ubiquitin, total 4 µg per well in the 6‐well plate.
Hela cells (passage. 5) 7 × 10^5 cells well^−1 were seeded in a 6‐well plate and allowed to adhere overnight (o/n). The next day, WT MDM2 and HA‐ubiquitin plasmid transfection was performed using Lipofectamine 3000 for 24 h, according to the manufacturer's instructions. After transfection for 24 h, cells were treated with CL144 for different time intervals, including 15, 30, and 60 min. After drug treatment, the cells were lysed using immunoprecipitation (IP) lysis buffer (ThermoFisher, 87788) supplemented with a protease inhibitor cocktail (PIC). The cell lysates were harvested for subsequent experiments. The cell lysate was incubated with a HA‐tag primary antibody (1′Ab) at 4 °C overnight to capture the target protein complexes. The next day, the antibody–protein complexes were bound to the beads for 1 h. The beads were washed three times with IP lysis buffer to remove nonspecific binding. […]

MDM2 [2] = target: T1, MDM2; test: MDM2 degradation by western blot in hBMSCs; format: cell-based; parameters: endogenous in cells; host or cells: hBMSCs
Experimental: Human Bone Marrow‐derived Mesenchymal Stem Cells (hBMSCs) were provided by Professor Lee's laboratory, and cells from passages four to nine were used for all experiments. hBMSCs were cultured in alpha‐minimum essential medium (Welgene, LM008‐01) supplemented with 10% Fetal Bovine Serum (FBS) (Gibco, US origin, 16000–044) and 1% penicillin/streptomycin (Gibco, 15140‐122).
After discarding the medium and washing the cells twice with cold dPBS, the cells were collected using a scraper and lysed using RIPA buffer (GenDEPOT, R4200‐010) containing protease and phosphatase inhibitors (GenDEPOT, P3200‐001). The collected samples were centrifuged at 13 200 rpm for 10 min at 4 °C, and the supernatant containing total protein was collected. SDS‐PAGE gels (10–12%) were prepared, and protein samples were mixed with 5X loading buffer containing reducing agent (Biosesang, S2002) and heated at 98 °C for 5 min. Equal amounts of protein samples were loaded onto a gel, separated by electrophoresis, and transferred onto nitrocellulose membranes using a Dry Transfer Stacks Kit (Invitrogen, IB23001). The membrane was blocked with 5% nonfat milk in 1X TBST for 1 h at room temperature to prevent nonspecific binding. The membranes were incubated with primary antibodies specific to the target proteins overnight at 4 °C with gentle shaking. The next day, the membrane was washed three times with TBST at 10 min intervals to remove unbound primary antibodies. The membranes were incubated with secondary antibodies (anti‐rabbit and anti‐mouse) conjugated to horseradish peroxidase (HRP) for 1 h at room temperature. The membrane was washed three times with 1X TBST at 10 min intervals to remove unbound secondary antibodies. After washing, a chemiluminescent substrate (ECL, Millipore, WBULS0100) was applied to the membrane to visualize protein bands using a chemiluminescence detector (for the antibodies used, see Table S2, Supporting Information).
The DC50 and Dmax values were calculated by western blot band quantification according to compound concentrations. The quantification value was normalized to the value relative to the untreated group and calculated using the sigmoidal dose‐response (variable slope) equation in GraphPad Prism.

COc1ccc(C2=N[C@H](c3ccc(Cl)cc3)[C@H](c3ccc(Cl)cc3)N2C(=O)N2CCN(CC(=O)NCCCCCCCCOc3cccc4c3C(=O)N(C3CCC(=O)NC3=O)C4=O)C(=O)C2)c(OC(C)C)c1 (stereo in doubt) [CL144]
amount of new bone (histomorphometric analysis) (rabbit calvaria): 25.58 ± 11.70%
expression of apoptosis markers Bcl‐2 or cleaved caspase‐3 (bone marrow toxicity) (bone marrow; IHC): no corresponding increase
MDM2 expression (IHC) (bone marrow; compared to Con and DMSO group): effectively reduced MDM2 expression
p53 expression (IHC) (bone marrow; compared to Con and DMSO group): significantly increased p53 expression
increase of ubiquitination level of MDM2 (MDM2 [1]): 2.65 fold
MDM2 degradation, dose-dependent effect (MDM2 [2]; 0.1 µM to 10 µM): robust MDM2 degradation
MDM2 degradation (MDM2 [2]; 10 µM, neo-substrate experiment): ≈ 70%
decrease in MDM2 levels compared to the basal level (MDM2 [2]; 10 μΜ for 1 h): over 80%
maximal degradation concentration (Dmax) (MDM2 [2]; quantified western blot, 1 nM to 50 µM, n = 2): 1 μΜ
DC50 (MDM2 [2]; quantified western blot, 1 nM to 50 µM, n = 2, read-out: half‐maximal degradation concentration (DC50)): 90 nM
